This is an account of results in patent US20240066027A1 (DOMAIN THERAPEUTICS, priority 2020, published 2024).

The structures appear in SMILES notation. Structures can show the parent of a compound that is named as a salt. A value given as a limit tells only on which side of the number the result lay.

This experiment addresses T1, human PAR-2 (hPAR-2) receptor expressed in HEK-293 T cells in an endogenous manner (Homo sapiens, UniProt P55085).
T1 construct: human PAR-2 (hPAR-2) receptor expressed in HEK-293 T cells in an endogenous manner; endogenous in cells; host or cells: HEK-293 T cells
T1 sequence (P55085 26-397): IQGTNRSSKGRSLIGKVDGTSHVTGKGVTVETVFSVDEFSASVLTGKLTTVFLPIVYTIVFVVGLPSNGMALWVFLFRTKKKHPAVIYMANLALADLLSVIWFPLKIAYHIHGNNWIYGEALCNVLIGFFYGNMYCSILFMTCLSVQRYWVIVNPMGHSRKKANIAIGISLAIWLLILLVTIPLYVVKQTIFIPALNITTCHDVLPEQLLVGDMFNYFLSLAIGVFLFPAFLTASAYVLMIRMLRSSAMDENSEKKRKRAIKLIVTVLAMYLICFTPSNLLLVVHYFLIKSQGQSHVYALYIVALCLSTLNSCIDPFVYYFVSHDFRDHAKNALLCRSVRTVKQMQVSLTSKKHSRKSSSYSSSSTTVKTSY
Nature of the experiment: In vitro human PAR-2 functional antagonist activity using calcium assays (Fluo4AM, FLIPR Tetra). The experiment is classed as cell-based. The note with it: HEK-293 T cells stimulated by an EC80 of the 2-Furoyl-LIGRLO-NH2 peptide after 10 min incubation with compound; 20 concentrations, duplicate, two independent experiments. The essentials: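 Fluo4AM-loaded HEK-293 T cells were exposed to compound for 10 min to read agonist effect. They were then stimulated with an EC80 of 2-Furoyl-LIGRLO-NH2 and intracellular calcium was recorded for 5 more min on FLIPR. Antagonism was scored against buffer basal and EC80 agonist-alone signals.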
Broadly, the IC50 is the point on the concentration scale where inhibition reaches its midpoint. For the molecule `CC1(C)C(=O)NCCN1C(=O)c1ccc2c(-c3ccc(Cl)c(F)c3)cn(C(C)(C)C)c2n1` [Example 1, 4-(1-(tert-butyl)-3-(4-chloro-3-fluorophenyl)-1H-pyrrolo[2,3-b]pyridine-6-carbonyl)-3,3-dimethylpiperazin-2-one], the IC50 was less than 20 nM.
In the case of `CC(C)(C)c1nn(-c2ccc(Cl)c(F)c2)c2ccc(C(=O)N3CCNC(=O)C3(C)C)nc12` [Example 75] it was 20 to 10000 nM; in that of `CC1(C)CN(c2ccc(P(=O)(O)O)cn2)CCN1C(=O)c1ccc2c(-c3ccc(Cl)c(F)c3)cn(C(C)(C)C)c2n1` [Example 194, (6-(4-(1-(tert-butyl)-3-(4-chloro-3-fluorophenyl)-1H-pyrrolo[2,3-b]pyridine-6-carbonyl)-3,3-dimethylpiperazin-1-yl)pyridin-3-yl)phosphonic acid], greater than 10000 nM.
In the case of `Cc1cc(N[C@@H]2CCN(C(=O)c3ccc4c(-c5ccc(Cl)c(F)c5)cn(C(C)(C)C)c4n3)C2)nc(C)c1C(=O)O` [Example 153, (R)-6-((1-(1-(tert-butyl)-3-(4-chloro-3-fluorophenyl)-1H-pyrrolo[2,3-b]pyridine-6-carbonyl)pyrrolidin-3-yl)amino)-2,4-dimethylnicotinic acid], the IC50 is greater than 10000 nM.
With `CC(C)Cc1nn(-c2ccc(Cl)c(F)c2)c2ccc(C(=O)N3CCNC(=O)C3)nc12` [Example 88, 4-(1-(4-chloro-3-fluorophenyl)-3-isobutyl-1H-pyrazolo[4,3-b]pyridine-5-carbonyl)piperazin-2-one] the figure was greater than 10000 nM; with `Cc1cc(N2CCN(C(=O)c3ccc4c(-c5ccc(Cl)c(F)c5)c(C)n(CC(C)C)c4n3)C(C)(C)C2)nc(C)c1C(=O)O` [Example 104, 6-(4-(3-(4-chloro-3-fluorophenyl)-1-isobutyl-2-methyl-1H-pyrrolo[2,3-b]pyridine-6-carbonyl)-3,3-dimethylpiperazin-1-yl)-2,4-dimethylnicotinic acid], less than 20 nM; with `Cc1cc(N2CCN(C(=O)c3ccc4c(-c5ccc(Cl)c(F)c5)c(C(F)(F)F)n(CC(C)C)c4n3)C(C)(C)C2)nc(C)c1C(=O)O` [Example 205, 6-(4-(3-(4-chloro-3-fluorophenyl)-1-isobutyl-2-(trifluoromethyl)-1H-pyrrolo[2,3-b]pyridine-6-carbonyl)-3,3-dimethylpiperazin-1-yl)-2,4-dimethyinicotinic acid], less than 20 nM.
Consider `Cc1cc(N2CCN(C(=O)c3ccc4c(n3)c(C(C)(C)C)cn4-c3ccc(Cl)c(F)c3)C(C)(C)C2)nc(C)c1C(=O)O` [Example 185, 6-(4-(3-(tert-butyl)-1-(4-chloro-3-fluorophenyl)-1H-pyrrolo[3,2-b]pyridine-5-carbonyl)-3,3-dimethylpiperazin-1-yl)-2,4-dimethylnicotinic acid], for which the IC50 is less than 20 nM.
With `Cc1cc(N2CCN(C(=O)c3ccc4c(-c5ccc(Cl)c(F)c5)cn(Cc5cccnc5)c4n3)C(C)(C)C2)nc(C)c1C(=O)O` [Example 135, 6-(4-(3-(4-chloro-3-fluorophenyl)-1-(pyridin-3-ylmethyl)-1H-pyrrolo[2,3-b]pyridine-6-carbonyl)-3,3-dimethylpiperazin-1-yl)-2,4-dimethylnicotinic acid hydrochloride], the half-inhibitory concentration (IC50) fell in the range of 20 to 10000 nM.
In the case of `Cc1cc(N2CCN(C(=O)c3ccc4c(-c5ccc(Cl)c(F)c5)cn(C)c4n3)C(C)(C)C2)nc(C)c1C(=O)O` [Example 122, 6-(4-(3-(4-chloro-3-fluorophenyl)-1-methyl-1H-pyrrolo[2,3-b]pyridine-6-carbonyl)-3,3-dimethylpiperazin-1-yl)-2,4-dimethylnicotinic acid hydrochloride], the concentration for half-maximal inhibition (IC50) was in the range of 20 to 10000 nM.
On to `Cc1cc(N2CCN(C(=O)c3ccc4c(-c5ccc(Cl)c(F)c5)cn(C[C@H]5CCCO5)c4n3)C(C)(C)C2)nc(C)c1C(=O)O` [Example 212, (R)-6-(4-(3-(4-chloro-3-fluorophenyl)-1-((tetrahydrofuran-2-yl)methyl)-1H-pyrrolo[2,3-b]pyridine-6-carbonyl)-3,3-dimethylpiperazin-1-yl)-2,4-dimethylnicotinic acid], for which the IC50 is less than 20 nM.
